Experimental data taken from PubChem BioAssay AID1259407 (Chemical Carcinogenesis Research Information System (CCRIS), 2018).
Calls of active or inactive are those of the source. The rule behind the calls is not given here.

System: CCRIS mutagenicity, Ames/micronucleus/aberration tests
Assay: CCRIS mutagenicity studies
[1] = Test System: AMES SALMONELLA TYPHIMURIUM, Strain/Indicator: TA98, Metabolic Activation: NONE, Method: STANDARD PLATE
[2] = Test System: AMES SALMONELLA TYPHIMURIUM, Strain/Indicator: TA100, Metabolic Activation: NONE, Method: STANDARD PLATE

Measured: mutagenic call

O=C1CCC(=O)N1Br
inactive: Test System: AMES SALMONELLA TYPHIMURIUM, Strain/Indicator: TA98, Metabolic Activation: HAMSTER, LIVER, S-9, AROCLOR 1254 (10%), Method: STANDARD PLATE inactive; negative | [1] inactive; negative | Test System: AMES SALMONELLA TYPHIMURIUM, Strain/Indicator: TA98, Metabolic Activation: RAT, LIVER, S-9, AROCLOR 1254 (10%), Method: STANDARD PLATE inactive; negative | [2] inactive; negative | Test System: MOUSE LYMPHOMA, Strain/Indicator: L5178Y (TK+/TK-), Metabolic Activation: RAT, LIVER, S-9, AROCLOR 1254, Method: SUSPENSION/PLATE inactive; negative. reevaluation of results: negative
active: Test System: AMES SALMONELLA TYPHIMURIUM, Strain/Indicator: TA100, Metabolic Activation: HAMSTER, LIVER, S-9, AROCLOR 1254 (10%), Method: STANDARD PLATE active; positive | Test System: AMES SALMONELLA TYPHIMURIUM, Strain/Indicator: TA100, Metabolic Activation: RAT, LIVER, S-9, AROCLOR 1254 (10%), Method: STANDARD PLATE active; positive | Test System: MOUSE LYMPHOMA, Strain/Indicator: L5178Y (TK+/TK-), Metabolic Activation: NONE, Method: SUSPENSION/PLATE active; positive. reevaluation of results: equivocal

COc1cccc2c1cc1c3c(cc4c(c32)OCO4)C(=O)N1[C@H]1O[C@H](CO)[C@@H](O)[C@H](O)[C@H]1O
inactive: Test System: AMES SALMONELLA TYPHIMURIUM, Strain/Indicator: TM677/8-AZAGUANINE, Metabolic Activation: NONE, Method: SUSPENSION/PLATE inactive; negative

N#Cc1ccc([N+](=O)[O-])cc1
inactive: Test System: AMES SALMONELLA TYPHIMURIUM, Strain/Indicator: TA98, Metabolic Activation: NONE, Method: PREINCUBATION inactive; negative | Test System: AMES SALMONELLA TYPHIMURIUM, Strain/Indicator: TA98, Method: PREINCUBATION inactive; negative | Test System: AMES SALMONELLA TYPHIMURIUM, Strain/Indicator: TA100, Metabolic Activation: NONE, Method: PREINCUBATION inactive; negative | Test System: AMES SALMONELLA TYPHIMURIUM, Strain/Indicator: TA100, Method: PREINCUBATION inactive; negative | Test System: AMES SALMONELLA TYPHIMURIUM, Strain/Indicator: TA1535, Metabolic Activation: NONE, Method: PREINCUBATION inactive; negative | Test System: AMES SALMONELLA TYPHIMURIUM, Strain/Indicator: TA1535, Method: PREINCUBATION inactive; negative | Test System: AMES SALMONELLA TYPHIMURIUM, Strain/Indicator: TA1537, Metabolic Activation: NONE, Method: PREINCUBATION inactive; negative | Test System: AMES SALMONELLA TYPHIMURIUM, Strain/Indicator: TA1537, Method: PREINCUBATION inactive; negative | Test System: AMES SALMONELLA TYPHIMURIUM, Strain/Indicator: TA1538, Metabolic Activation: NONE, Method: PREINCUBATION inactive; negative | Test System: AMES SALMONELLA TYPHIMURIUM, Strain/Indicator: TA1538, Method: PREINCUBATION inactive; negative

COc1ccccc1NC(=O)c1csc([N+](=O)[O-])c1
active: [1] active; positive | [2] active; positive
